Test results taken from patent publication US20240252517A1, “MINERALOCORTICOID RECEPTOR ANTAGONISTS FOR THE PREVENTION AND/OR TREATMENT OF A CORONAVIRUS INFECTION” (Imaginatives Group Limited, priority 2021, published 2024).

Tests used:
[1] = test system: SARS-CoV-2
[2] = test system: COVID-19; settings: cited from earlier work
[3] = test system: endothelial cells; settings: MR activation; result in words; cited from earlier work

With C[C@@H]1C[C@H]2[C@@H]3CCC4=CC(=O)C=C[C@]4(C)[C@@]3(F)[C@@H](O)C[C@]2(C)[C@@]1(O)C(=O)CO [HIDEX, dexamethasone] the “Resorption of pneumonia on day 5 (number of patients)” value ([1]; 120 h) was 15, the “Fasting glucose” value ([1]; after 5 d, mean ± SD, baseline HIDEX 5.9 ± 2.0, SPIDEX 6.89 ± 3.22) was 11.69 ± 6.21 mmol/L and the Breath rate/min ([1]; after 5 d, mean ± SD, baseline HIDEX 24.8 ± 4.6, SPIDEX 24.2 ± 4.1) was 18.4 ± 3.1 min⁻¹. The “CRP” value ([1]; after 5 d, mean ± SD, baseline HIDEX 72.4 ± 61.7, SPIDEX 65.75 ± 50.9) was 28.1 ± 22.9 mg/L, the HR/min ([1]; after 5 d, mean ± SD, baseline HIDEX 84.7 ± 10.8, SPIDEX 83.8 ± 11.8) was 89.1 ± 10.6 min⁻¹ and the “BPdiast., mm Hg” value ([1]; after 5 d, mean ± SD, baseline HIDEX 86 ± 8.6, SPIDEX 85.25 ± 12.40) was 89.0 ± 10.6 mm Hg. The “Blood oxygen, %” value ([1]; after 5 d, mean ± SD, baseline HIDEX 91.8 ± 3.6, SPIDEX 91.7 ± 3.3) was 94.1 ± 3.0%, the “D-dimer” value ([1]; after 5 d, mean ± SD, baseline HIDEX 736.7 ± 680.6, SPIDEX 755.5 ± 606.1) was 574.8 ± 306.4 ng/mL and the “CRP, mg/l (range in brackets)” value ([1]; after 5 d, range, baseline HIDEX 6.4-204, SPIDEX 10.2-209) was “(2.8-83.5) mg/l”. The “D-dimer, ng/ml (range in brackets)” value ([1]; after 5 d, range, baseline HIDEX 85-2500, SPIDEX 145-2500) was “(38-2800) ng/ml”, the “Fasting blood glucose compared to baseline” value ([1]; after 5 d, result in words) was “significantly elevated” and the “Loss of smell/taste, % of patients” value ([1]; after 5 days treatment, baseline 85% (spironolactone/low dose dexamethasone), 82.5% (high dose dexamethasone)) was 75%. For the same molecule, the “BPsyst., mm Hg” value ([1]; after 5 d of treatment, mean ± SD, baseline HIDEX 139.6 ± 15.5, SPIDEX 137.5 ± 22.5) was 150.1 ± 20.1 mm Hg, the “Deaths (number of patients)” value ([1]; of 40 patients per group) was 1 and the “Deterioration of the Chest X-ray picture assessed on the 5th day (number of patients)” value ([1]; of 40 patients per group) was 4.
In the case of C[C@]12CCC(=O)C=C1C=C[C@@H]1[C@@H]2CC[C@@]2(C)[C@H]1CC[C@@]21CCC(=O)O1 [canrenone], the Patients requiring ventilation ([2]; group B given canrenone, group A 49%) is listed as 20%, the Mortality ([2]; group B given canrenone, group A conventional treatment 36%) is listed as 13% and the D-Dimer levels ([2]; result in words, rose significantly in control group) is listed as “fell”.
In the case of CC(=O)S[C@@H]1CC2=CC(=O)CC[C@]2(C)[C@H]2CC[C@@]3(C)[C@@H](CC[C@@]34CCC(=O)O4)[C@H]12 [spironolactone], the “Exocytosis of Weibel-Palade bodies / Von Willebrand Factor” value [3] is given as “blocked”.
